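A five-concentration, 48-hour dose response in 96-well plates underlies each endpoint, interpolated linearly between surrounding concentrations. The concentration for 50% growth inhibition is given as GI50.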 Active and inactive are the calls of the source. Rule as the data show it: active = GI50 up to about 1.1 µM and inactive = higher.
Columns and labels:
Assay in all cases: inhibition of tumour cell growth, NCI panel, 48 h
SK-MEL-2 = tested on: SK-MEL-2
IGROV-1 = tested on: IGROV-1
SK-MEL-5 = tested on: SK-MEL-5
LOX IMVI = tested on: LOX IMVI
K562 = tested on: K562
HT-29 = tested on: HT-29
NCI-H522 = tested on: NCI-H522
UACC-257 = tested on: UACC-257
MOLT-4 = tested on: MOLT-4
SNB-75 = tested on: SNB-75
KM12 = tested on: KM12
BT-549 = tested on: BT-549
SW-620 = tested on: SW-620
SF-268 = tested on: SF-268
DU-145 = tested on: DU-145
U-251 = tested on: U-251
SF-295 = tested on: SF-295
SR = tested on: SR
HCT-15 = tested on: HCT-15
CAKI-1 = tested on: CAKI-1

| Compound | GI50 (SK-MEL-2) | GI50 (IGROV-1) | GI50 (SK-MEL-5) | GI50 (LOX IMVI) | GI50 (K562) | GI50 (HT-29) | GI50 (NCI-H522) | GI50 (UACC-257) | GI50 (MOLT-4) | GI50 (SNB-75) | GI50 (KM12) | GI50 (BT-549) | GI50 (SW-620) | GI50 (SF-268) | GI50 (DU-145) | GI50 (U-251) | GI50 (SF-295) | GI50 (SR) | GI50 (HCT-15) [µM] | GI50 (CAKI-1) |
| --- | --- | --- | --- | --- | --- | --- | --- | --- | --- | --- | --- | --- | --- | --- | --- | --- | --- | --- | --- | --- |
| O=C(CCC1CCCCC1)NCc1ccc(C(=O)O)cc1 | > 100 µM (inactive) | > 100 µM (inactive) | > 100 µM (inactive) | > 100 µM (inactive) | > 100 µM (inactive) | > 100 µM (inactive) | > 100 µM (inactive) | > 100 µM (inactive) | > 100 µM (inactive) | > 100 µM (inactive) | > 100 µM (inactive) | > 100 µM (inactive) | > 100 µM (inactive) | > 100 µM (inactive) | > 100 µM (inactive) | > 100 µM (inactive) | > 100 µM (inactive) | > 100 µM (inactive) | > 100 | > 100 µM (inactive) |
| C#CCSc1nc(-c2ccco2)n[nH]1 | > 100 µM (inactive) | 48.5 µM (inactive) | > 100 µM (inactive) | > 100 µM (inactive) | > 100 µM (inactive) | > 100 µM (inactive) | > 100 µM (inactive) | > 100 µM (inactive) | > 100 µM (inactive) | > 100 µM (inactive) | > 100 µM (inactive) | > 100 µM (inactive) | > 100 µM (inactive) | > 100 µM (inactive) | > 100 µM (inactive) | > 100 µM (inactive) | > 100 µM (inactive) | > 100 µM (inactive) | > 100 | > 100 µM (inactive) |
| Cc1cc(C)nc(NS(=O)(=O)c2ccc(Nc3c4ccccc4nc4ccc(C(=O)Nc5ccc(S(N)(=O)=O)cc5)cc34)cc2)n1 | > 100 µM (inactive) | > 100 µM (inactive) | 72.6 µM (inactive) | 50.6 µM (inactive) | 66.4 µM (inactive) | > 100 µM (inactive) | > 100 µM (inactive) | > 100 µM (inactive) | > 100 µM (inactive) | > 100 µM (inactive) | > 100 µM (inactive) | 24.9 µM (inactive) | > 100 µM (inactive) | > 100 µM (inactive) | > 100 µM (inactive) | 66.4 µM (inactive) | > 100 µM (inactive) | > 100 µM (inactive) | > 100 | > 100 µM (inactive) |
| COC(=O)C1=CSC2(S1)C(C(=O)OC)=CSc1c2ss/c1=N\c1ccccc1 (stereo not given) | 2 µM (inactive) | 2.47 µM (inactive) | 2.53 µM (inactive) | 1.67 µM (inactive) | 2.7 µM (inactive) | 2.48 µM (inactive) | 1.25 µM (inactive) | 2.43 µM (inactive) | 0.714 µM (active) | 2.22 µM (inactive) | 2.68 µM (inactive) | 2.74 µM (inactive) | 2.51 µM (inactive) | 3.02 µM (inactive) | 2.96 µM (inactive) | 2.4 µM (inactive) | 1.81 µM (inactive) | 0.605 µM (active) | 1.74 | 2.98 µM (inactive) |
| Cc1cc(N(CCCl)CCCl)ccc1/C=N/NC(=O)Cc1cc(=O)oc2cc(O)ccc12 | 32.3 µM (inactive) | 15.8 µM (inactive) | 8.51 µM (inactive) | 12.6 µM (inactive) | 9.18 µM (inactive) | 14.7 µM (inactive) | 13.7 µM (inactive) | 20.8 µM (inactive) | 5.6 µM (inactive) | 28.6 µM (inactive) | 16.6 µM (inactive) | 13.4 µM (inactive) | 21.4 µM (inactive) | 10.2 µM (inactive) | 18.5 µM (inactive) | 14.2 µM (inactive) | 17.2 µM (inactive) | 7.08 µM (inactive) | 14.4 | 6.4 µM (inactive) |
| NS(=O)(=O)c1ccc(/N=N/c2nc3[nH]cnc(=S)c3[nH]2)cc1 | 0.971 µM (active) | 7.29 µM (inactive) | 5.36 µM (inactive) | 0.236 µM (active) | 0.3 µM (active) | 1.34 µM (inactive) | 0.887 µM (active) | 2.94 µM (inactive) | 0.134 µM (active) | 2.05 µM (inactive) | 4.1 µM (inactive) | 1.3 µM (inactive) | 2.29 µM (inactive) | 0.885 µM (active) | 0.638 µM (active) | 6.24 µM (inactive) | 1.59 µM (inactive) | 0.0803 µM (active) | 2.09 | 1.42 µM (inactive) |
| CCCCCCCCC/C=C1/CC(CO)(COC(=O)C2CCCCC2)OC1=O (stereo not given) | > 100 µM (inactive) | > 100 µM (inactive) | 43.2 µM (inactive) | 72.4 µM (inactive) | 67.5 µM (inactive) | > 100 µM (inactive) | 63.1 µM (inactive) | > 100 µM (inactive) | > 100 µM (inactive) | > 100 µM (inactive) | > 100 µM (inactive) | > 100 µM (inactive) | > 100 µM (inactive) | > 100 µM (inactive) | > 100 µM (inactive) | > 100 µM (inactive) | > 100 µM (inactive) | > 100 µM (inactive) | > 100 | > 100 µM (inactive) |
| CCOC(=O)N1C/C(=C\c2ccccc2)C(=O)/C(=C/c2ccccc2)C1 | 6.7 µM (inactive) | 5.02 µM (inactive) | 2.97 µM (inactive) | 1.7 µM (inactive) | 1.44 µM (inactive) | 1.49 µM (inactive) | 2.56 µM (inactive) | 4.46 µM (inactive) | 1.96 µM (inactive) | 6.97 µM (inactive) | 2.03 µM (inactive) | 2.3 µM (inactive) | 1.4 µM (inactive) | 4.17 µM (inactive) | 8.81 µM (inactive) | 1.45 µM (inactive) | 3.01 µM (inactive) | 0.873 µM (active) | 2.32 | 2.22 µM (inactive) |
| c1ccc(/N=C2\SC(c3ccccc3)CN2C23CC4CC(CC(C4)C2)C3)cc1 (stereo not given) | > 100 µM (inactive) | > 100 µM (inactive) | > 100 µM (inactive) | > 100 µM (inactive) | > 100 µM (inactive) | > 100 µM (inactive) | > 100 µM (inactive) | > 100 µM (inactive) | > 100 µM (inactive) | > 100 µM (inactive) | > 100 µM (inactive) | > 100 µM (inactive) | > 100 µM (inactive) | > 100 µM (inactive) | > 100 µM (inactive) | > 100 µM (inactive) | > 100 µM (inactive) | > 100 µM (inactive) | > 100 | > 100 µM (inactive) |
| CC(CN(C)C)C(=O)/C=C/c1ccc(Cl)c(Cl)c1 (stereo not given) | 2 µM (inactive) | 1.78 µM (inactive) | 1.6 µM (inactive) | 1.56 µM (inactive) | 3.01 µM (inactive) | 1.67 µM (inactive) | 1.55 µM (inactive) | 2.38 µM (inactive) | 2.67 µM (inactive) | 19.1 µM (inactive) | 1.31 µM (inactive) | 2.14 µM (inactive) | 2.07 µM (inactive) | 1.85 µM (inactive) | > 100 µM (inactive) | 1.26 µM (inactive) | 3.44 µM (inactive) | 1.02 µM (active) | 1.59 | 2 µM (inactive) |
| CC(CC[C@@]1(O)OC2C[C@H]3[C@@H]4CC[C@H]5CC(OC6OC(CO)C(OC7OC(CO)C(O)C(OC8OCC(O)C(O)C8O)C7OC7OC(CO)C(O)C(O)C7O)C(O)C6O)[C@H](O)CC5(C)[C@H]4CCC3(C)C2[C@@H]1C)COC1OC(CO)C(O)C(O)C1O (stereo not given in full) | 13.4 µM (inactive) | 11.3 µM (inactive) | 6.9 µM (inactive) | 8.97 µM (inactive) | 16.6 µM (inactive) | 11 µM (inactive) | 2.87 µM (inactive) | 15.8 µM (inactive) | 2.45 µM (inactive) | 0.64 µM (active) | 15.3 µM (inactive) | 1.76 µM (inactive) | 11.6 µM (inactive) | 2.48 µM (inactive) | 3.09 µM (inactive) | 15.5 µM (inactive) | 4.24 µM (inactive) | 7.85 µM (inactive) | 20.9 | 4.76 µM (inactive) |
| CC(NCCN(C)C)C1CCC2C3CCc4cc(O)ccc4C3CCC12C (stereo not given) | 1.91 µM (inactive) | 4.97 µM (inactive) | 1.71 µM (inactive) | 2.03 µM (inactive) | 1.86 µM (inactive) | 2.89 µM (inactive) | 3.2 µM (inactive) | 2.06 µM (inactive) | 1.85 µM (inactive) | 3.14 µM (inactive) | 3.21 µM (inactive) | 17.4 µM (inactive) | 3.33 µM (inactive) | 5.28 µM (inactive) | 6.18 µM (inactive) | 2.07 µM (inactive) | 2.59 µM (inactive) | 1.44 µM (inactive) | 2.79 | 2.07 µM (inactive) |
| C#C[C@]1(O)CC[C@H]2[C@@H]3CCC4=C/C(=N/OC(=O)c5cccc6c(=O)c7ccccc7[nH]c56)CCC4[C@H]3CC[C@@]21CC (stereo not given in full) | 32.4 µM (inactive) | 27.3 µM (inactive) | 14.9 µM (inactive) | 15.7 µM (inactive) | 10.9 µM (inactive) | 8.28 µM (inactive) | 20.8 µM (inactive) | 11.3 µM (inactive) | 4.3 µM (inactive) | 9.18 µM (inactive) | 20.1 µM (inactive) | 17 µM (inactive) | 24 µM (inactive) | 66.4 µM (inactive) | 55.2 µM (inactive) | 9.89 µM (inactive) | 3.69 µM (inactive) | 3.25 µM (inactive) | 13.4 | 32.4 µM (inactive) |
| Cn1c(=O)cc(NNc2ccccc2)[nH]c1=O | 36 µM (inactive) | 25.4 µM (inactive) | > 100 µM (inactive) | 14.9 µM (inactive) | 38.2 µM (inactive) | 15.7 µM (inactive) | 15.1 µM (inactive) | 48.3 µM (inactive) | 37.9 µM (inactive) | > 100 µM (inactive) | 26.3 µM (inactive) | > 100 µM (inactive) | 17.5 µM (inactive) | 44.3 µM (inactive) | 54.2 µM (inactive) | 17.8 µM (inactive) | > 100 µM (inactive) | 10.7 µM (inactive) | 16.4 | 15.6 µM (inactive) |

Source: ChEMBL document CHEMBL1201862, “PubChem BioAssay data set” (2004)
